Test results as given in patent US4623648A, “1-azaxanthone for use as therapeutic agent as an antipyretic, analgesic, anti-inflammatory and bronchodilator” (priority 1981, dated 1986).
Values after ≈ are worked out from the molar mass of the structure shown. Where two headings read alike, the source gives them in different places.

Key:
rabbits [1] = assay: Lipopolysaccharide hyperthermia in rabbits with established fever; assay type: in vivo; conditions: 200 mg/kg i.p.
Procedure: (§1) Sprague-Dawley rats, Swiss mice, California rabbits and mongrel guinea pigs and cats were used. 1-azaxanthone was administered as a suspension in 0.5 % w/v of carboxymethyl-cellulose in distilled water for oral and i.p. administration. When administered i.v. or to the nutrient liquid of the isolated tissues, a solution of the compound in isopropylidenglycerol (15 mg/ml) was used.
Hyperthermia induced in rabbits by i.v. injection of lipopolysaccharide of Escherichia coli (according to C. A. Winter and G. W. Nuss, Toxic. Appl. Pharmacol. 1963, 5, 247). […] The compound was also effective when administered to rabbits with established fever; for example, when 200 mg/kg of 1-azaxanthone were administered i.p. to a group of 5 rabbits from a total of 10 with mean hyperpyrexia of +1.15° C. 2 hours after the lipopolysaccharide injection, the hyperpyrexia of the treated group was +0.7° C. at 2 hours and +0.1° C. at 3 hours, while the hyperpyrexia of the untreated animals was 1.5° C. at 2 hours and 1.15° C. at 3 hours (all periods after administration of the test compound).

cardiocirculatory system = assay: Effect on the cardiocirculatory system; assay type: in vivo; conditions: rats, cats and dogs
Acute toxicity in rats = conditions: rat, in vivo
Procedure: (§2) The acute toxicity of 1-azaxanthone was evaluated in rats and mice. LD50 values ranged between 400-600 mg/kg (i.p. route) and between 600-2000 mg/kg (oral route) depending on species and sex.

Evans blue permeability = Evans blue permeability assay; conditions: in vivo
rabbits [2] = assay: Hyperthermia induced in rabbits by lipopolysaccharide of Escherichia coli, preventive; assay type: in vivo; conditions: 0.1 μg/kg lipopolysaccharide
Procedure: Sprague-Dawley rats, Swiss mice, California rabbits and mongrel guinea pigs and cats were used. 1-azaxanthone was administered as a suspension in 0.5 % w/v of carboxymethyl-cellulose in distilled water for oral and i.p. administration.

[3] = Acute toxicity in rats and mice (overall ranges); conditions: in vivo, depending on species and sex
Procedure: as §2

mice = assay: Hot plate test in mice; assay type: in vivo; conditions: Mus musculus; oral, 1 hour before; plate 57°±0.5° C.; 95% confidence limits 11-39
Procedure: as §1
Hot plate test in mice. An analgesimeter LETICA model 7000 was used, the temperature of the plate being maintained at 57°±0.5° C. The test compound was administered by oral route 1 hour before placing the animals on the plate.

[4] = system: Mycob. Butyricum induced arthritis; assay: Mycob. Butyricum induced arthritis; assay type: in vivo; conditions: only in preventative treatment
Text: Butyricum induced arthritis (only in preventative treatment).

Acute toxicity in mice = conditions: mouse, in vivo, ip, female mice
Procedure: as §2

rats [5] = assay: D'Amour and Smith test in rats; assay type: in vivo; conditions: oral dose of ca. 100 mg/kg, 1 hour before testing
Procedure: as §1
"D'Amour and Smith" test in rats (see J. Pharmacol. Exptl. Therap., 1941, 72, 74). An analgesimeter LETICA model 7100 was used. An oral dose of ca. 100 mg/kg of 1-azaxanthone, administered 1 hour before testing produced analgesia in 50% of the animals.

[6] = system: bilaterally suprarenalectomized rats; assay: Carrageenan paw oedema in bilaterally suprarenalectomized rats; assay type: in vivo; conditions: 200 mg/kg per os
Procedure: as §1
Carrageenan rat paw oedema (according to C. A. Winter et al., Proc. Soc. Exptl. Biol. N.Y. 1962, 111, 544).

rats [7] = assay: Preliminary teratogenesis studies in rats; assay type: in vivo
[8] = system: guinea pig tracheal chain; assay: Isolated guinea pig tracheal chain; conditions: Cavia porcellus, bath nutrient liquid
Procedure: as §1
Isolated guinea pig tracheal chain (according to J. C. Castillo and E. K. DeBeer, J. Pharmacol. Exptl. Ther. 1947, 90, 104). 1-azaxanthone produced maximum relaxation of the tracheal muscle at a concentration of 20 μg/ml in the bath nutrient liquid. The minimun effective dose was about 5 μg/ml.

[9] = system: turpentine-induced pleurisy; assay: Turpentine-induced pleurisy; conditions: in vivo
[10] = system: schistosomiasis infections; conditions: F. G. Mann, J. A. Reid, J. Chem. Soc. 1952; cited from earlier work
[11] = Water solubility (general statement); assay type: physicochemical
Guinea pig ileum = Guinea pig ileum in vitro spasmolytic assay; conditions: Cavia porcellus, read-out: ED50 (dose which inhibits the response of the ileum to the agonist by 50%)
Procedure: as §1
Guinea pig ileum (according to R. Magnus, Pflugers Arch. Ges. Physiol. 1904, 102, 123). In this "in vitro" assay 1-azaxanthone had the following ED50 with different agonists (dose which inhibits the response of the ileum to the agonists by 50%): […]

rats [12] = assay: 14 day oral tolerance of gastric and rectal mucosae and liver elimination of sulphobromophthalein; assay type: in vivo; conditions: 200 mg/kg/day oral, 14 consecutive days
rats [13] = assay: Yeast-induced hyperthermia in rats; assay type: in vivo
Procedure: as §1
Yeast-induced hyperthermia in rats (according to U. M. Teotino et al., J. Med. Chem. 1963, 6, 248). The test compound was administered by oral route 1 hour before the s.c. injection of the pyrogenic agent.

rats [14] = assay: Diuretic activity in rats; assay type: in vivo; conditions: 10 mg/kg oral
Procedure: as §1
1-azaxanthone was administered orally to rats (groups of 10) in a volume of 5 ml/rat immediately before allocating the animals to metabolism cages. The total volume of urine was measured 6 and 24 hours later. 10 mg/kg of 1-azaxanthone increased the total volume with respect to the control group by 94% in the first 6 hours and 44% in the 24 hours period.

abscess = assay: Carrageenan-induced abscess; assay type: in vivo; conditions: 50×2 mg/kg per os
Procedure: as §1
Carrageenan-induced abscess (according to K. F. Benitz and L. M. Hall, Arch. Int. Pharmacodyn. 1963, 144, 185).

## O=c1c2ccccc2oc2ncccc12 [1-azaxanthone]
Rabbits [1]; 2 hours after administration (untreated 1.5° C.)
  hyperpyrexia of the treated group: +0.7 °C
Rabbits [1]; 3 hours after administration (untreated 1.15° C.)
  hyperpyrexia of the treated group: +0.1 °C
Cardiocirculatory system
  effect on the cardiocirculatory system: no effect on the cardiocirculatory system
Acute toxicity in rats; ip, female rats
  LD50: 420 mg/kg
Acute toxicity in rats; po, orally, male rats
  LD50: ~2000 mg/kg
Evans blue permeability
  activity in Evans blue permeability assay: showed activity
Rabbits [2]; 100 mg/kg i.p., control increase 1.85° C.
  reduction of the increase in rectal temperature: 0.7 °C
Rabbits [2]; 200 mg/kg i.p.
  protection against increase in rectal temperature: completely protected the animals
[3]; ip
  LD50: 400 to 600 mg/kg
[3]; oral
  LD50: 600 to 2000 mg/kg
mice
  ED50: 21 mg/kg
[4]
  activity in Mycob. Butyricum induced arthritis: showed activity
Acute toxicity in mice
  LD50: 600 mg/kg
Rats [5]
  animals with analgesia: 50%
[6]
  inhibition of oedema: 39%
Rats [7]
  teratogenic potential: did not show any clear specific teratogenic potential
[8]; read-out: concentration producing maximum relaxation of the tracheal muscle
  EC (maximum relaxation): 20 µg/mL
[8]; read-out: minimum effective dose (tracheal relaxation)
  minimal effective concentration: ~5 µg/mL
[9]
  activity in turpentine-induced pleurisy: showed activity
[10]
  effect on schistosomiasis infections: did not show any "significant effect on schistosomiasis infections"
[11]
  water solubility: low water solubility
Guinea pig ileum; agonist: Acetylcholine
  IC50: 14.3 µg/mL (≈ 72.3 µM)
Guinea pig ileum; agonist: BaCl2
  IC50: 19.7 µg/mL (≈ 100 µM)
Guinea pig ileum; agonist: Histamine
  IC50: 22.9 µg/mL (≈ 116 µM)
Guinea pig ileum; agonist: Nicotine
  IC50: 27.8 µg/mL (≈ 141 µM)
Rats [12]
  liver elimination of sulphobromophthalein: eliminated sulphobromophthalein well
  tolerance of gastric and rectal mucosae: tolerated the compound well
Rats [13]; 0.375 mg/kg, 2nd and 3rd hours
  antipyretic effect: statistically significant antipyretic effect
Rats [13]; 6.2 mg/kg oral, 4 hours after yeast injection (control increase 1.8° C.)
  prevention of hyperthermia: completely prevented the hyperthermia
Rats [13]; 6.2 mg/kg oral, 6 hours after yeast injection (control total increase 1.4° C.)
  decrease of hyperthermia with respect to control increase: 0.8 °C
Rats [14]
  sodium excretion: increased
Rats [14]; 24 hours period
  increase of total urine volume with respect to control: 44%
Rats [14]; first 6 hours
  increase of total urine volume with respect to control: 94%
abscess
  inhibition of dry weight of the abscess: 48.4%
  inhibition of wet weight of the abscess: 34.6%
